From ChEMBL document CHEMBL2406991, “A novel series of metabotropic glutamate receptor 5 negative allosteric modulators based on a 4,5,6,7-tetrahydropyrazolo[1,5-a]pyridine core” (Bioorg Med Chem Lett, 2013)
Values after ≈ are worked out from the molar mass of the structure shown. Each block holds one compound with its values, some of them ahead of it. Active and inactive are the calls of the source. No cut-off for these calls is given here.

Assays:
[1] = molecular target: Metabotropic glutamate receptor 5 (Rattus norvegicus, UniProt P31424); assay: Negative allosteric modulation of rat mGluR5 receptor expressed in HEK293 cells assessed as intracellular calcium flux after 170 seconds by FLIPR assay; assay type: functional, cell-based
Cytochrome P450 3A4 = Cytochrome P450 3A4 (Homo sapiens, UniProt P08684); assay: Inhibition of CYP3A4 (unknown origin); assay type: ADME
Cytochrome P450 2C9 = Cytochrome P450 2C9 (Homo sapiens, UniProt P11712); assay: Inhibition of CYP2C9 (unknown origin); assay type: ADME
Cytochrome P450 2D6 = Cytochrome P450 2D6 (Homo sapiens, UniProt P10635); assay: Inhibition of CYP2D6 (unknown origin); assay type: ADME
[2] = Kinetic solubility of the compound in DMSO at pH 7.4; assay type: physicochemical; details: read-out: Kinetic_solubility
[3] = Kinetic solubility of the compound in DMSO at pH 1; assay type: physicochemical; details: read-out: Kinetic_solubility
[4] = Intrinsic clearance in human microsomes measured per mg of protein; assay type: ADME, Microsome
[5] = Intrinsic clearance in rat microsomes measured per mg of protein; assay type: ADME, Microsome
[6] = molecular target: Metabotropic glutamate receptor 5 (Rattus norvegicus) (UniProt P31424); assay: Displacement of [3H]MPEP from mGluR5 receptor in Sprague-Dawley rat cortical homogenate after 1 hr by liquid scintillation spectrometric analysis
[7] = molecular target: Metabotropic glutamate receptor 5 (Rattus norvegicus) (UniProt P31424); assay: Inhibition of rat mGluR5 receptor expressed in HEK293 cells at 30 uM relative to control; assay type: cell-based
Cytochrome P450 1A2 = molecular target: T1, Cytochrome P450 1A2 (Homo sapiens, UniProt P05177); assay: Inhibition of CYP1A2 (unknown origin); assay type: ADME
T1 sequence (P05177 whole entry): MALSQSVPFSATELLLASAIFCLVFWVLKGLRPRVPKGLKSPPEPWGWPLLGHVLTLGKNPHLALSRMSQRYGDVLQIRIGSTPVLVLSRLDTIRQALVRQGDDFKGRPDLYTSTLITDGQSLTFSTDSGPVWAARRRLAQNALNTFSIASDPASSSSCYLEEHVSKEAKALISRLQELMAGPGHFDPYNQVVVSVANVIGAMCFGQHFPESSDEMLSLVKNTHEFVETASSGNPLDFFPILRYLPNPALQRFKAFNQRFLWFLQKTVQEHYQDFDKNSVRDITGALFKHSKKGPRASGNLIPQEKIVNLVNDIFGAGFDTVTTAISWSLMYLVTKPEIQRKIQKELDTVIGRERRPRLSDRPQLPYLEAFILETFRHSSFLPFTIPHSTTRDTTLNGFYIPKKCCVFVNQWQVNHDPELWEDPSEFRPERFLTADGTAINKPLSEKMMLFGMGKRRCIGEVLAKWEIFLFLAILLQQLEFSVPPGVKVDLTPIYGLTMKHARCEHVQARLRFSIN

Plasma [8] = assay: Terminal plasma concentration in Sprague-Dawley rat at 30 mg/kg, po measured during second phase of formalin test; assay type: ADME, organism-based; parameters: dose 30 mg/kg, route oral; details: in vivo
Plasma [9] = assay: Terminal plasma concentration in Sprague-Dawley rat at 10 mg/kg, po measured during second phase of formalin test; assay type: ADME, organism-based; parameters: dose 10 mg/kg, route oral; details: in vivo
Plasma [10] = assay: Terminal plasma concentration in Sprague-Dawley rat at 3 mg/kg, po measured during second phase of formalin test; assay type: ADME, organism-based; parameters: dose 3 mg/kg, route oral; details: in vivo
Plasma [11] = assay: Terminal plasma concentration in Sprague-Dawley rat at 1 mg/kg, po measured during second phase of formalin test; assay type: ADME, organism-based; parameters: dose 1 mg/kg, route oral; details: in vivo
Rattus norvegicus [12] = assay: Antinociceptive activity in Sprague-Dawley rat assessed as reduction in formalin-induced nocifensive behavior at 1 to 30 mg/kg, po administered 30 mins prior to formalin-challenge measured during first phase of test; assay type: functional, organism-based
Rattus norvegicus [13] = assay: Antinociceptive activity in Sprague-Dawley rat assessed as reduction in formalin-induced nocifensive behavior at 30 mg/kg, po administered 30 mins prior to formalin-challenge measured during second phase of test; assay type: functional, organism-based; parameters: dose 30 mg/kg
Rattus norvegicus [14] = assay: Antinociceptive activity in po dosed Sprague-Dawley rat assessed as reduction in formalin-induced nocifensive behavior administered 30 mins prior to formalin-challenge measured during second phase of test; assay type: functional, organism-based
[15] = Fraction unbound in rat plasma; assay type: ADME, cell-free
Plasma [16] = assay: Drug uptake in rat CSF assessed as ratio of CSF to plasma at 30 mg/kg, sc relative to control; assay type: ADME, organism-based; parameters: dose 30 mg/kg, route subcutaneous; details: in vivo
[17] = Cmax in rat plasma at 30 mg/kg, sc; assay type: ADME, organism-based; parameters: dose 30 mg/kg, route subcutaneous
[18] = Cmax in rat CSF at 30 mg/kg, sc; assay type: ADME, organism-based, Cerebrospinal fluid; parameters: dose 30 mg/kg, route subcutaneous
[19] = Volume of distribution at steady state in rat at 3 mg/kg, iv; assay type: ADME, organism-based; parameters: dose 3 mg/kg, route intravenous; details: in vivo, read-out: Vdss
[20] = Half life in rat at 3 mg/kg, iv; assay type: ADME, organism-based; parameters: dose 3 mg/kg, route intravenous; details: in vivo
[21] = Clearance in rat at 3 mg/kg, iv; assay type: ADME, organism-based; parameters: dose 3 mg/kg, route intravenous; details: in vivo
Rattus norvegicus [22] = assay: Antinociceptive activity in Sprague-Dawley rat assessed as reduction in formalin-induced nocifensive behavior at 10 mg/kg, po administered 30 mins prior to formalin-challenge; assay type: functional, organism-based; parameters: dose 10 mg/kg

Metabotropic glutamate receptor 5, sequence (P31424 whole entry): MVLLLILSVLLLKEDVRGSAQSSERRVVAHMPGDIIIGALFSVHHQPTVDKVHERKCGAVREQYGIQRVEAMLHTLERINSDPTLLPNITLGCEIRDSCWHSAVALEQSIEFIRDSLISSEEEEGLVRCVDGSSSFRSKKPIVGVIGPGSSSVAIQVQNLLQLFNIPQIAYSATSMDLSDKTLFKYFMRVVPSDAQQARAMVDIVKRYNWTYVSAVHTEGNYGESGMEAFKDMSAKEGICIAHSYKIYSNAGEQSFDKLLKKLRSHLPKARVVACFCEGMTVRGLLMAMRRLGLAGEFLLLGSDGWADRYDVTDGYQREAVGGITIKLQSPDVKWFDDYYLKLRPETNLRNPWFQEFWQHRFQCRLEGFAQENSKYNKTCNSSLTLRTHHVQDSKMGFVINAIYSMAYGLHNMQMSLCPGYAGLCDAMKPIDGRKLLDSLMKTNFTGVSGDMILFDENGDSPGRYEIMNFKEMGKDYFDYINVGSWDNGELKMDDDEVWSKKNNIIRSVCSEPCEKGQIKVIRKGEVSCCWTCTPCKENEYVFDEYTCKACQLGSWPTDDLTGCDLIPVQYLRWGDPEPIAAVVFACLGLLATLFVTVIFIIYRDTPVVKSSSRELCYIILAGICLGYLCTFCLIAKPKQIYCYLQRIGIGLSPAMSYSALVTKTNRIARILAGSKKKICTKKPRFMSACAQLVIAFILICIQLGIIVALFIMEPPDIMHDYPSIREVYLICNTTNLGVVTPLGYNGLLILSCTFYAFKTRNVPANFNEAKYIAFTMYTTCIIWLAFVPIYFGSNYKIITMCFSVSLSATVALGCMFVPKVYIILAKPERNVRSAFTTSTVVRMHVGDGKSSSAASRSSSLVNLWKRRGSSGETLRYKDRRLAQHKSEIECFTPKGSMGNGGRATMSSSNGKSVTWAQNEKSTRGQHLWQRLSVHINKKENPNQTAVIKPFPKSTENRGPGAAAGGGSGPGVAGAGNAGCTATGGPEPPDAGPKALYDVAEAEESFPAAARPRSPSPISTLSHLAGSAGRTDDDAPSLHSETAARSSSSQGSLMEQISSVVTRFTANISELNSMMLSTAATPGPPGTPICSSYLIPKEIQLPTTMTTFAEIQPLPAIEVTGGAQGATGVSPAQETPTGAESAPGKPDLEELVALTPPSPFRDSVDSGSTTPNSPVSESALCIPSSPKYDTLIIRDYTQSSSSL
Metabotropic glutamate receptor 5 (Rattus norvegicus), sequence (P31424 21-1203 limits assumed): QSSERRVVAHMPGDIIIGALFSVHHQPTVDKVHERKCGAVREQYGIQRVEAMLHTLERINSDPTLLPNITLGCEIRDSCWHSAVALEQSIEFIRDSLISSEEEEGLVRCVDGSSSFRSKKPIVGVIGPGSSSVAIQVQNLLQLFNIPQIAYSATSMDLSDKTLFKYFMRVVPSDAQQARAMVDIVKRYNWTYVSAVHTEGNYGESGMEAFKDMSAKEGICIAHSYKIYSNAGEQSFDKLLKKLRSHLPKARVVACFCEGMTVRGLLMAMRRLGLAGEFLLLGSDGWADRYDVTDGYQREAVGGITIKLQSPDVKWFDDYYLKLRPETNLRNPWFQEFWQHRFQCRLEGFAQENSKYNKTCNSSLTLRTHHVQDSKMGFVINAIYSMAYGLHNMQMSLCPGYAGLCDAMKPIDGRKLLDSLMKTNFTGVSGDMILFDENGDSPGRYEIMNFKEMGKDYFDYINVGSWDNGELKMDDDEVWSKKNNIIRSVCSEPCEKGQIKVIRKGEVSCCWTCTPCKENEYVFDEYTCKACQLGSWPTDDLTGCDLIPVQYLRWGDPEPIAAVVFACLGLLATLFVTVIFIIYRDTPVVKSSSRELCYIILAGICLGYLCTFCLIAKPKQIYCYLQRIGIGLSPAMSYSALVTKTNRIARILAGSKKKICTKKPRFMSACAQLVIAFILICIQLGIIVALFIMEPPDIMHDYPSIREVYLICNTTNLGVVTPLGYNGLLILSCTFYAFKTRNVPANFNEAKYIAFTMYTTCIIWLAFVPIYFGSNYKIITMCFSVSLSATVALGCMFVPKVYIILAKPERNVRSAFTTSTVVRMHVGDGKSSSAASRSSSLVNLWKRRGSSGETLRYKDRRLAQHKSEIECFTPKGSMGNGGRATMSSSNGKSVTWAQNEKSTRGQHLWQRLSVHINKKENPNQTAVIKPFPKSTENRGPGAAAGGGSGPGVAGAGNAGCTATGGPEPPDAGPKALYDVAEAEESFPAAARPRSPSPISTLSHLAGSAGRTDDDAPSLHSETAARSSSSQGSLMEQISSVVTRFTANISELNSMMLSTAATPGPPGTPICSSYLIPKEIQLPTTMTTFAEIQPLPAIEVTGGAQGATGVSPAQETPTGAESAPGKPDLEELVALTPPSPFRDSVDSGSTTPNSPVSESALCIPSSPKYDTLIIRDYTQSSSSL
Cytochrome P450 2D6, sequence (P10635 whole entry): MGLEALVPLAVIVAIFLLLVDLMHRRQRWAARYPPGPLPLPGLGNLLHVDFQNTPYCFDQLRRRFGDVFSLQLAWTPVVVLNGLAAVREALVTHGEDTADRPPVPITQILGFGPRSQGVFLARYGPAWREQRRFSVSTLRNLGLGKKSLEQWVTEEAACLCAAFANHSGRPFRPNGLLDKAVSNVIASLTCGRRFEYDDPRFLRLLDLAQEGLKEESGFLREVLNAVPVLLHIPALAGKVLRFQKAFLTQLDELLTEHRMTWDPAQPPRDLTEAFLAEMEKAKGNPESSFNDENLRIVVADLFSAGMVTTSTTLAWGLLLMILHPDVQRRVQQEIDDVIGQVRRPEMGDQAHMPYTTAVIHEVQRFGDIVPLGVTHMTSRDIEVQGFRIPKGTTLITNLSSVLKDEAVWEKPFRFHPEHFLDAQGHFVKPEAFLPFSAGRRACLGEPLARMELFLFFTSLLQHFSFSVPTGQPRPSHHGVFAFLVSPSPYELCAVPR
Cytochrome P450 3A4, sequence (P08684 whole entry): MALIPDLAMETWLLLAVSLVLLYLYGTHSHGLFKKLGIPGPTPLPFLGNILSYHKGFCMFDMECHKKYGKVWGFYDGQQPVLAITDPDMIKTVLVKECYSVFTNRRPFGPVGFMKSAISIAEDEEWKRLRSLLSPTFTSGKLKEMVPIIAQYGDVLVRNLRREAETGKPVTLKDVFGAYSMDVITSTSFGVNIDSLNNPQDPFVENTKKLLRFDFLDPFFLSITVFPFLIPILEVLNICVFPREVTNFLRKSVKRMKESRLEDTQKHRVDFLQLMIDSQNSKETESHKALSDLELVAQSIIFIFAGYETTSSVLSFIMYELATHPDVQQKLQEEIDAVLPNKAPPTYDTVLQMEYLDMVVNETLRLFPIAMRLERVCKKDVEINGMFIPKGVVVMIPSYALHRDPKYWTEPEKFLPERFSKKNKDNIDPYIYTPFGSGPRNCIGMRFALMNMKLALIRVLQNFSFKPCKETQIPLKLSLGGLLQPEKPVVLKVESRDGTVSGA
Cytochrome P450 2C9, sequence (P11712 whole entry): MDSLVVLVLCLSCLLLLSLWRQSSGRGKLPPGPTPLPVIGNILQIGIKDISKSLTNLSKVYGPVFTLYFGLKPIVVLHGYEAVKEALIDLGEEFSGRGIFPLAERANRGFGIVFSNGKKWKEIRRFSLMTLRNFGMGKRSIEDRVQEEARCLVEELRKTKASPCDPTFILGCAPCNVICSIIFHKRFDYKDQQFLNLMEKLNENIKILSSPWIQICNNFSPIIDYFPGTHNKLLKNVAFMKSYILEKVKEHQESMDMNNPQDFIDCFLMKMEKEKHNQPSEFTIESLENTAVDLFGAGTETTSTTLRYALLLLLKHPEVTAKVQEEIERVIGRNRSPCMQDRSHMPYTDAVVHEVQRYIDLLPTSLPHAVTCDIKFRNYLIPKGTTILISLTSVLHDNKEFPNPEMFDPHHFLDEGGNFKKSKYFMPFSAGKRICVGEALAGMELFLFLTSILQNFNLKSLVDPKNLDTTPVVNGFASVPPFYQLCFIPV

Compound: Cc1ccnc(-c2cc3n(n2)CCCC3)c1
IC50 ([1]; read-out: IC50): 3080 nM

Compound: c1ccc(-c2cc3n(n2)CCCC3)nc1
INH (Cytochrome P450 3A4): > 10 µM
INH (Cytochrome P450 2C9): > 10 µM
INH (Cytochrome P450 2D6): > 10 µM
solubility kinetic [2]: 180 µg/mL (≈ 903 µM)
solubility kinetic [3]: 170 µg/mL (≈ 853 µM)
microsomal CLint [4]: 97 µL/min/mg
microsomal CLint [5]: 118 µL/min/mg
INH [6]: 1180 nM
inhibition [7]: > 99%
IC50 ([1]; read-out: IC50): 1290 nM
INH (Cytochrome P450 1A2): > 10 µM

Compound: Nc1cccc(COc2cc3n(n2)CCCC3)n1
IC50 ([1]; hek293): Not Active

Compound: Clc1ccc(-c2cc3n(n2)CCCC3)nc1
IC50 ([1]; read-out: IC50): 669 nM

Compound: N#Cc1ccc(COc2cc3n(n2)CCCC3)cc1
IC50 ([1]; read-out: IC50): 1610 nM

Compound: FC(F)(F)c1cccc(-c2cc3n(n2)CCCC3)c1
IC50 ([1]; read-out: IC50): 3990 nM

Compound: Fc1cccc(-c2cc3n(n2)CCCC3)c1
IC50 ([1]; read-out: IC50): 1570 nM

Compound: N#Cc1ccc(CC(=O)c2nn3c(c2C#N)CCCC3)nc1
IC50 ([1]; read-out: IC50): 5380 nM

Compound: Clc1cccc(-c2cc3n(n2)CCCC3)c1
solubility kinetic [2]: 20 µg/mL (≈ 85.9 µM)
solubility kinetic [3]: 110 µg/mL (≈ 473 µM)
microsomal CLint [4]: 386 µL/min/mg
microsomal CLint [5]: 384 µL/min/mg
INH [6]: 401 nM
inhibition [7]: > 99%
IC50 ([1]; read-out: IC50): 77 nM
INH (Cytochrome P450 1A2): < 0.75 µM

Compound: Clc1ccccc1-c1cc2n(n1)CCCC2
IC50 ([1]; read-out: IC50): 2650 nM

Compound: Clc1ccc(-c2cc3n(n2)CCCC3)cc1
IC50 ([1]; read-out: IC50): 4230 nM

Compound: Clc1ccc(COc2cc3n(n2)CCCC3)nc1
IC50 ([1]; read-out: IC50): 1550 nM

Compound: COc1cccc(-c2cc3n(n2)CCCC3)c1
IC50 ([1]; read-out: IC50): 4500 nM

Compound: Clc1ccnc(COc2cc3n(n2)CCCC3)c1
IC50 ([1]; read-out: IC50): > 10000 nM

Compound: Clc1cccc(COc2cc3n(n2)CCCC3)n1
IC50 ([1]; read-out: IC50): 5900 nM

Compound: Cc1nc(C#Cc2cccnc2)cs1
Activity (Rattus norvegicus [22]): Active

Further lines, with some results ahead:

IC50 ([1]; hek293): Not Active
Compound: Nc1ccc(NC(=O)c2cc3n(n2)CCCC3)nc1

IC50 ([1]; hek293): Not Active
Compound: CN(C(=O)c1cc2n(n1)CCCC2)c1ccccn1

INH (Cytochrome P450 3A4): > 10 µM
INH (Cytochrome P450 2C9): > 10 µM
INH (Cytochrome P450 2D6): > 10 µM
solubility kinetic [2]: 100 µg/mL (≈ 393 µM)
solubility kinetic [3]: 160 µg/mL (≈ 629 µM)
microsomal CLint [4]: 85 µL/min/mg
microsomal CLint [5]: 42 µL/min/mg
INH [6]: 299 nM
inhibition [7]: > 99%
IC50 ([1]; read-out: IC50): 316 nM
Cp(T) (Plasma [8]): 501 ng/mL
Cp(T) (Plasma [9]): 46 ng/mL
Cp(T) (Plasma [10]): 5.3 ng/mL
Cp(T) (Plasma [11]): 2.4 ng/mL
fraction unbound [15]: 0.32
Drug uptake (Plasma [16]): 14.4%
Cmax [17]: 2900 ng/mL
Cmax [18]: 416 ng/mL
Vd [19]: 1.1 L/kg
half-life [20]: 12 min
clearance [21]: 72 mL/min/kg
INH (Cytochrome P450 1A2): > 10 µM
Compound: N#Cc1ccc(COc2cc3n(n2)CCCC3)nc1
Activity (Rattus norvegicus [12]): inactive
Activity (Rattus norvegicus [13]): Active
Activity (Rattus norvegicus [14]): Dose-dependent effect

IC50 ([1]; hek293): Not Active
Compound: O=C(Nc1cccc(C(F)(F)F)n1)c1cc2n(n1)CCCC2

IC50 ([1]; read-out: IC50): 4740 nM
Compound: O=C(Nc1cccc(F)n1)c1cc2n(n1)CCCC2

IC50 ([1]; hek293): Not Active
Compound: COc1cccnc1NC(=O)c1cc2n(n1)CCCC2

IC50 ([1]; read-out: IC50): 390 nM
Compound: O=C(Cc1ccccn1)c1cc2n(n1)CCCC2

IC50 ([1]; hek293): Not Active
Compound: N#Cc1ccnc(NC(=O)c2cc3n(n2)CCCC3)c1

IC50 ([1]; read-out: IC50): > 10000 nM
Compound: N#Cc1ccc(-c2cc3n(n2)CCCC3)nc1

IC50 ([1]; hek293): Not Active
Compound: N#Cc1cccnc1NC(=O)c1cc2n(n1)CCCC2

IC50 ([1]; hek293): Not Active
Compound: Cc1cccnc1NC(=O)c1cc2n(n1)CCCC2
